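A five-concentration, 48-hour dose response in 96-well plates underlies each endpoint, interpolated linearly between surrounding concentrations. TGI: total growth inhibition.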
Experiments:
Experiment in all cases: NCI anticancer screen, dose series, 48 h
SW-620 colon = system: SW-620 colon
NCI/ADR-RES ovarian = system: NCI/ADR-RES ovarian
CCRF-CEM leukemia = system: CCRF-CEM leukemia
SN12C renal = system: SN12C renal
IGROV1 ovarian = system: IGROV1 ovarian
MALME-3M melanoma = system: MALME-3M melanoma
NCI-H23 lung = system: NCI-H23 lung
SF-268 CNS = system: SF-268 CNS
SNB-19 CNS = system: SNB-19 CNS
SF-295 CNS = system: SF-295 CNS
KM12 colon = system: KM12 colon
SK-OV-3 ovarian = system: SK-OV-3 ovarian
A498 renal = system: A498 renal
CAKI-1 renal = system: CAKI-1 renal
OVCAR-4 ovarian = system: OVCAR-4 ovarian
MDA-MB-231 breast = system: MDA-MB-231 breast
NCI-H522 lung = system: NCI-H522 lung
786-0 renal = system: 786-0 renal
K-562 leukemia = system: K-562 leukemia
OVCAR-8 ovarian = system: OVCAR-8 ovarian
ACHN renal = system: ACHN renal
UACC-62 melanoma = system: UACC-62 melanoma
OVCAR-3 ovarian = system: OVCAR-3 ovarian
HCT-116 colon = system: HCT-116 colon
SF-539 CNS = system: SF-539 CNS
MOLT-4 leukemia = system: MOLT-4 leukemia
T-47D breast = system: T-47D breast
HT29 colon = system: HT29 colon
A549 NSCLC = system: A549 NSCLC
LOX IMVI melanoma = system: LOX IMVI melanoma
DU-145 prostate = system: DU-145 prostate
HOP-62 NSCLC = system: HOP-62 NSCLC
COLO 205 colon = system: COLO 205 colon
HL-60(TB) leukemia = system: HL-60(TB) leukemia
HOP-92 NSCLC = system: HOP-92 NSCLC
SR leukemia = system: SR leukemia
U251 CNS = system: U251 CNS
MCF7 breast = system: MCF7 breast
SK-MEL-28 melanoma = system: SK-MEL-28 melanoma
UACC-257 melanoma = system: UACC-257 melanoma
RPMI-8226 leukemia = system: RPMI-8226 leukemia
SK-MEL-5 melanoma = system: SK-MEL-5 melanoma
TK-10 renal = system: TK-10 renal
NCI-H226 lung = system: NCI-H226 lung
MDA-MB-435 = system: MDA-MB-435
HS 578T breast = system: HS 578T breast
UO-31 renal = system: UO-31 renal
EKVX NSCLC = system: EKVX NSCLC
BT-549 breast = system: BT-549 breast
MDA-N = system: MDA-N
SK-MEL-2 melanoma = system: SK-MEL-2 melanoma
NCI-H460 lung = system: NCI-H460 lung
RXF 393 renal = system: RXF 393 renal
M14 melanoma = system: M14 melanoma
HCC-2998 colon = system: HCC-2998 colon
SNB-75 CNS = system: SNB-75 CNS
HCT-15 colon = system: HCT-15 colon
OVCAR-5 ovarian = system: OVCAR-5 ovarian

O=c1[nH]nc(Cc2ccccc2)n1O
TGI (SW-620 colon): > 100 µM | TGI (NCI/ADR-RES ovarian): > 100 µM | TGI (CCRF-CEM leukemia): > 100 µM | TGI (SN12C renal): > 100 µM | TGI (IGROV1 ovarian): > 100 µM | TGI (MALME-3M melanoma): > 100 µM | TGI (NCI-H23 lung): > 100 µM | TGI (SF-268 CNS): > 100 µM | TGI (SNB-19 CNS): > 100 µM | TGI (SF-295 CNS): > 100 µM | TGI (KM12 colon): > 100 µM | TGI (SK-OV-3 ovarian): > 100 µM | TGI (A498 renal): > 100 µM | TGI (CAKI-1 renal): > 100 µM | TGI (OVCAR-4 ovarian): > 100 µM | TGI (MDA-MB-231 breast): > 100 µM | TGI (NCI-H522 lung): > 100 µM | TGI (786-0 renal): > 100 µM | TGI (K-562 leukemia): > 100 µM | TGI (OVCAR-8 ovarian): > 100 µM | TGI (ACHN renal): > 100 µM | TGI (UACC-62 melanoma): > 100 µM | TGI (OVCAR-3 ovarian): > 100 µM | TGI (HCT-116 colon): > 100 µM | TGI (SF-539 CNS): > 100 µM | TGI (MOLT-4 leukemia): > 100 µM | TGI (T-47D breast): > 100 µM | TGI (HT29 colon): > 100 µM | TGI (A549 NSCLC): > 100 µM | TGI (LOX IMVI melanoma): > 100 µM | TGI (DU-145 prostate): > 100 µM | TGI (HOP-62 NSCLC): > 100 µM | TGI (COLO 205 colon): > 100 µM | TGI (HL-60(TB) leukemia): > 100 µM | TGI (HOP-92 NSCLC): > 100 µM | TGI (SR leukemia): > 100 µM | TGI (U251 CNS): > 100 µM | TGI (MCF7 breast): > 100 µM | TGI (SK-MEL-28 melanoma): > 100 µM | TGI (UACC-257 melanoma): > 100 µM | TGI (RPMI-8226 leukemia): > 100 µM | TGI (SK-MEL-5 melanoma): > 100 µM | TGI (TK-10 renal): > 100 µM | TGI (NCI-H226 lung): > 100 µM | TGI (MDA-MB-435): > 100 µM | TGI (HS 578T breast): > 100 µM | TGI (UO-31 renal): > 100 µM | TGI (EKVX NSCLC): > 100 µM | TGI (BT-549 breast): > 100 µM | TGI (MDA-N): > 100 µM

CC(=O)Oc1ccc2oc(=O)cc(C)c2c1
TGI (SW-620 colon): > 100 µM | TGI (NCI/ADR-RES ovarian): > 100 µM | TGI (CCRF-CEM leukemia): > 100 µM | TGI (SN12C renal): > 100 µM | TGI (IGROV1 ovarian): > 100 µM | TGI (SK-MEL-2 melanoma): > 100 µM | TGI (MALME-3M melanoma): > 100 µM | TGI (NCI-H23 lung): > 100 µM | TGI (NCI-H460 lung): > 100 µM | TGI (SF-268 CNS): > 100 µM | TGI (RXF 393 renal): > 100 µM | TGI (SNB-19 CNS): > 100 µM | TGI (SF-295 CNS): > 100 µM | TGI (KM12 colon): > 100 µM | TGI (A498 renal): > 100 µM | TGI (CAKI-1 renal): > 100 µM | TGI (OVCAR-4 ovarian): > 100 µM | TGI (MDA-MB-231 breast): > 100 µM | TGI (NCI-H522 lung): > 100 µM | TGI (786-0 renal): > 100 µM | TGI (K-562 leukemia): > 100 µM | TGI (OVCAR-8 ovarian): > 100 µM | TGI (ACHN renal): > 100 µM | TGI (OVCAR-3 ovarian): > 100 µM | TGI (HCT-116 colon): > 100 µM | TGI (SF-539 CNS): > 100 µM | TGI (MOLT-4 leukemia): > 100 µM | TGI (M14 melanoma): > 100 µM | TGI (T-47D breast): > 100 µM | TGI (HT29 colon): > 100 µM | TGI (A549 NSCLC): > 100 µM | TGI (LOX IMVI melanoma): > 100 µM | TGI (DU-145 prostate): > 100 µM | TGI (HOP-62 NSCLC): > 100 µM | TGI (COLO 205 colon): > 100 µM | TGI (HL-60(TB) leukemia): > 100 µM | TGI (HOP-92 NSCLC): > 100 µM | TGI (SR leukemia): > 100 µM | TGI (U251 CNS): > 100 µM | TGI (MCF7 breast): > 100 µM | TGI (SK-MEL-28 melanoma): > 100 µM | TGI (UACC-257 melanoma): > 100 µM | TGI (RPMI-8226 leukemia): > 100 µM | TGI (SK-MEL-5 melanoma): > 100 µM | TGI (TK-10 renal): > 100 µM | TGI (HCC-2998 colon): > 100 µM | TGI (NCI-H226 lung): > 100 µM | TGI (SNB-75 CNS): > 100 µM | TGI (MDA-MB-435): > 100 µM | TGI (HS 578T breast): > 100 µM | TGI (UO-31 renal): > 100 µM | TGI (EKVX NSCLC): > 100 µM | TGI (BT-549 breast): > 100 µM | TGI (MDA-N): > 100 µM

C[C@H]1CC[C@@H]2[C@@H](C)C[C@H]3[C@@H]4C(C)(C)OC(=O)[C@]4(C)C(=O)[C@@]23C1=O
TGI (SW-620 colon): > 100 µM | TGI (NCI/ADR-RES ovarian): > 100 µM | TGI (CCRF-CEM leukemia): > 100 µM | TGI (SN12C renal): > 100 µM | TGI (IGROV1 ovarian): > 100 µM | TGI (MALME-3M melanoma): > 100 µM | TGI (NCI-H23 lung): > 100 µM | TGI (NCI-H460 lung): > 100 µM | TGI (SF-268 CNS): > 100 µM | TGI (SNB-19 CNS): > 100 µM | TGI (SF-295 CNS): > 100 µM | TGI (KM12 colon): > 100 µM | TGI (SK-OV-3 ovarian): > 100 µM | TGI (A498 renal): > 100 µM | TGI (CAKI-1 renal): > 100 µM | TGI (OVCAR-4 ovarian): > 100 µM | TGI (MDA-MB-231 breast): > 100 µM | TGI (NCI-H522 lung): > 100 µM | TGI (786-0 renal): > 100 µM | TGI (K-562 leukemia): > 100 µM | TGI (OVCAR-8 ovarian): > 100 µM | TGI (ACHN renal): > 100 µM | TGI (UACC-62 melanoma): > 100 µM | TGI (OVCAR-3 ovarian): > 100 µM | TGI (HCT-116 colon): > 100 µM | TGI (SF-539 CNS): > 100 µM | TGI (MOLT-4 leukemia): > 100 µM | TGI (M14 melanoma): > 100 µM | TGI (T-47D breast): 68.1 µM | TGI (HT29 colon): > 100 µM | TGI (A549 NSCLC): > 100 µM | TGI (LOX IMVI melanoma): > 100 µM | TGI (DU-145 prostate): > 100 µM | TGI (HOP-62 NSCLC): > 100 µM | TGI (COLO 205 colon): > 100 µM | TGI (HL-60(TB) leukemia): > 100 µM | TGI (HOP-92 NSCLC): > 100 µM | TGI (HCT-15 colon): > 100 µM | TGI (OVCAR-5 ovarian): > 100 µM | TGI (MCF7 breast): > 100 µM | TGI (SK-MEL-28 melanoma): > 100 µM | TGI (UACC-257 melanoma): > 100 µM | TGI (RPMI-8226 leukemia): > 100 µM | TGI (SK-MEL-5 melanoma): > 100 µM | TGI (TK-10 renal): > 100 µM | TGI (HCC-2998 colon): > 100 µM | TGI (NCI-H226 lung): > 100 µM | TGI (SNB-75 CNS): > 100 µM | TGI (MDA-MB-435): > 100 µM | TGI (HS 578T breast): > 100 µM | TGI (EKVX NSCLC): > 100 µM | TGI (BT-549 breast): > 100 µM | TGI (MDA-N): > 100 µM

— PubChem BioAssay (NCI)
